How the values were obtained:
RagD = RagD GTP hydrolysis inhibitory activity (GTP-agarose bead pulldown assay) in SW620 cells; type: cell-based; conditions: 10 μM for 1 hour, leucine restimulation 15 min
Protocol: GTP-agarose bead pulldown assay was performed to analyze RagD bound to GTP.
After washing the cells with cold PBS, cells were obtained in GTP-binding buffer (20 mM Tris-HCl, pH 7.5, 5 mM MgCl2, 2 mM PMSF, 20 μg/ml leupeptin, 10 μg/ml aprotinin, 150 mM NaCl, 1% Triton X-100, 1× phosphatase inhibitor cocktail). The cells were sonicated for 15 seconds to lyse, and the cell lysate was centrifuged at 4° C. for 10 minutes and at 13000×g to obtain a supernatant. The obtained protein solution (contained in 500 μl of GTP-binding buffer) was treated with 100 μl of GPT-agarose bead (Sigma Aldrich, Cat no. G9768) and left at 4° C. for 30 minutes. Thereafter, the beads were washed with GTP-binding buffer, and the supernatant was recovered. The washed beads in the recovered supernatant were once again treated for 30 minutes. The beads were washed again, and the recovered supernatant was left overnight at 4° C. After washing 5 times with GTP-binding buffer to separate contaminants that may have been included, the GTP-binding protein was analyzed by performing immunoblot analysis using anti-RagD or ARF1 antibody. ARF1 was used as a negative control.

LRS and RagD = LRS and RagD (Homo sapiens (Human), UniProt Q9P2J5); assay: Inhibition of the interaction of LRS and RagD (immunoprecipitation) in SW620 cells; type: cell-based; conditions: 10 uM for 1 hour, leucine restimulation, anti-LRS or anti-RagD precipitate
Sequence of LRS and RagD (Q9P2J5 whole entry): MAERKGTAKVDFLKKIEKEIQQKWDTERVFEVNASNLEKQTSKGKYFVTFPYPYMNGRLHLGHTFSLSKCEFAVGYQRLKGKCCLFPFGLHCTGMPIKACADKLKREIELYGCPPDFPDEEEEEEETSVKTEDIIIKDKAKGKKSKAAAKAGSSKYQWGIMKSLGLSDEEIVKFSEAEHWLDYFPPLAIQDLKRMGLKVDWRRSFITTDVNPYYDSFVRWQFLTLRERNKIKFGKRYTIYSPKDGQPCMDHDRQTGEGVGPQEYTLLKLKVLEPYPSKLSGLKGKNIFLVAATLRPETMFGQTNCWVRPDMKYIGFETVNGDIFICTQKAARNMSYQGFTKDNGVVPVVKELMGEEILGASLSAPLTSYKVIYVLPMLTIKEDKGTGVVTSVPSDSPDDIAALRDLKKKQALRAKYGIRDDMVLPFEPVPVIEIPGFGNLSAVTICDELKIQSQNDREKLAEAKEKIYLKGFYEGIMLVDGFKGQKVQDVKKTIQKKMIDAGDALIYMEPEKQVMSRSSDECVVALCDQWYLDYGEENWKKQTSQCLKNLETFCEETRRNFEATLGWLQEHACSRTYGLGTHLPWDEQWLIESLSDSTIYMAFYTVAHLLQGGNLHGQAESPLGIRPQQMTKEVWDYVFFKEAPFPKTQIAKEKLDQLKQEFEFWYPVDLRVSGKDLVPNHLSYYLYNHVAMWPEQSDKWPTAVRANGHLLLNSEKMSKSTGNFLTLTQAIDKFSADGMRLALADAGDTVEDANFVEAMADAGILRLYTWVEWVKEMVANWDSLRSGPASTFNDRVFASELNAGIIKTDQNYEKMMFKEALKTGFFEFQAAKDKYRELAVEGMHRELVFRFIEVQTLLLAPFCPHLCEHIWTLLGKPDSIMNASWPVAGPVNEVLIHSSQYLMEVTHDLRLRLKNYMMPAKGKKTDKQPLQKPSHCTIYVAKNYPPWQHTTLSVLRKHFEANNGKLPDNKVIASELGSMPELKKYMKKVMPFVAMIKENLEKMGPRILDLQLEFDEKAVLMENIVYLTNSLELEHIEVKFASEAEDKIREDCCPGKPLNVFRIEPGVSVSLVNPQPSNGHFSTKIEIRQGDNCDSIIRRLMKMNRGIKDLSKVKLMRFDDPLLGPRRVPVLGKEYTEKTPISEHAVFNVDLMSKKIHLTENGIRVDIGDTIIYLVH
Protocol: Cells were lysed using a lysis buffer containing a protease inhibitor, and a primary antibody was added to the cell lysate for immunoprecipitation, followed by stirring at 4° C. for 2 hours and allowed to stand. A 50% protein agarose G-Sepharose slurry was added and left for an additional 4 hours. After washing three times with cold lysis buffer, the precipitate was dissolved in SDS sample buffer, separated by SDS-PAGE, and immunoblotted using anti-LRS or anti-RagD antibody.

mTORC2 [1] = target: T1, mTORC2 (Mus musculus (Mouse), UniProt Q9JLN9); assay: In vivo mTORC2 activity, AKT phosphorylation in brain of C57BL/6 mice; conditions: 100 mg/kg intraperitoneal; 7-week-old C57BL/6 male mice
Protocol: (§1) The salt of the compound of the Example 1-1 was administered at a dose of 100 mg/kg (in 10% DMAC, 15% Tween 80, 75% 0.1M Na2HPO4, pH9.4), and rapamycin at a dose of 2 mg/kg (in 10% DMAC, 15% Tween 80, 75% saline).

mTORC1 [2] = assay: mTORC1 activation (p-S6K T389) in TSC2 CKO epilepsy animal model; type: in vivo, mouse; conditions: TSC2 CKO mice; rapamycin 3 mg/kg or Example 1-1K 10 mg/kg i.p.; 4 weeks; vs control
Protocol: (§2) Animal care was performed according to an animal protocol approved by the Animal Experiment Committee of Seoul National University. TSC2^GFAP1 CKO mice were generated as follows. TSC2^flox/flox mice were first crossed with the same GFAP-Cre mouse line. The resulting TSC2^flox/+; TSC2^flox/flox by crossing GFAP-Cre mice with other TSC2^flox/flox mice; GFAP-Cre mice were generated.
For western blot analysis, mouse cerebral neocortex and hippocampus were dissected and sonicated in cell lysis buffer (Cell Signaling, Beverly, Mass., USA). After centrifugation at 15,000 rpm at 4° C. for 1 hour. a supernatant was obtained and the protein concentration was measured by the Bradford method (Pierce, Rockford, Ill., USA). An equal amount of total protein extract was separated by SDS-PAGE and transferred to a nitrocellulose membrane.

autophagy [3] = assay: Autophagy markers (LC3 II increase or p62 cleavage) in TSC2 CKO epilepsy animal model; type: in vivo, mouse; conditions: TSC2 CKO mice; rapamycin 3 mg/kg or Example 1-1K 10 mg/kg i.p.; 4 weeks
Protocol: as §2
(§3) For western blot analysis, mouse cerebral neocortex and hippocampus were dissected and sonicated in cell lysis buffer (Cell Signaling, Beverly, Mass., USA). After centrifugation at 15,000 rpm at 4° C. for 1 hour. a supernatant was obtained and the protein concentration was measured by the Bradford method (Pierce, Rockford, Ill., USA). An equal amount of total protein extract was separated by SDS-PAGE and transferred to a nitrocellulose membrane. After incubation with anti-p-S6K (T389) (Cell Signaling, #9205), anti-S6K (Cell Signaling, #9202), anti-Actin (Santa Cruz Biotechnology, #sc-1616), anti-p-AKT (S473) (Cell signaling, #4060), anti-AKT (Cell signaling, #2920) anti-p62/SQSTM1 (Cell signaling, #39749) and anti-LC3A (Cell signaling, #4108) antibodies in 1% TTBBS buffer (10 mM Tris, 10% Tris (Tris-HCl, pH 7.5, 150 mM NaCl, 0.05% Tween 20), the membrane was reacted with a peroxidase-conjugated secondary antibody. Signals were detected using an improved chemiluminescent reagent (Pierce, Rockford, Ill., USA).

autophagy [4] = assay: In vivo autophagy (LC3 II or p62 degradation) in brain of C57BL/6 mice; parameters: species or system mouse; conditions: 100 mg/kg intraperitoneal; 7-week-old C57BL/6 male mice
Protocol: as §1

mTORC1 [5] = assay: In vivo mTORC1 inhibition, S6K phosphorylation in brain neocortex and hippocampus of C57BL/6 mice; parameters: species or system mouse
Protocol: as §1
On the other hand, the present inventor attempted to evaluate the mTOR. inhibitory activity by salt concentration of the compound of Example 1-1 based on the above results.

B6C3H/APP/PS1 mice = assay: Amyloid plaque removal in Alzheimer's animal model, ThS staining; type: in vivo, mouse; conditions: 5, 10 or 20 mg/kg intraperitoneal once daily for 7 days, vs vehicle
Source text: In the experiment, 7 months old male B6C3H/APP/PS1 mice were purchased from Jackson Lab (Bar Harbor, Me., USA) and used. These mouse are all dual transgenic mice expressing chimeric mouse/human amyloid precursor protein and mutant human presenilin 1, both of these are about CNS neurons. Both mutations are associated with early onset Alzheimer's.
The prepared salt (1-4K) of the compound of Example 1-1 was intraperitoneally administered at 0, 5, 10 or 20 mpk (mg/kg) per mouse, once daily for 7 days. As the solvent, 10% DMAC, 15% Tween 80, and 75% 0.1M Na2HPO4 buffer were used.
For immunohistochemical analysis, mice were anesthetized with 2% Avertin (20 μg g^−1, intraperitoneally), perfused with 0.9% saline, and perfused with ice-cold 4% paraformaldehyde. Excised brains of B6C3H/APP/PS1 mice were fixed in 4% paraformaldehyde (pH 7.4) for 16 hours. The fixed brain samples were immersed in 30% sucrose for cryoprotection and sliced to a thickness of 35 μm using a Cryostat (Microm HM 525, Thermo Scientific, Waltham, Mass., USA). To visualize Aβ plaques, sliced brain sections were stained with thioflavin S (ThS) for 7 minutes. […]
Images were taken with a Leica DM2500 fluorescence microscope. Plaque numbers were calculated from a single brain image of each mouse using the ImageJ software program.
Aβ deposition in the brain of APP/PS1 mice can be detected at 6 months of age. […]

mTORC2 [6] = target: T1, mTORC2; assay: mTORC2 activation (p-AKT S473) in TSC2 CKO epilepsy animal model; type: in vivo; conditions: TSC2 CKO mice; rapamycin 3 mg/kg or Example 1-1K 10 mg/kg i.p.; 4 weeks
Protocol: as §2, §3

mTORC1 [7] = assay: mTORC1 activity inhibitory effect at 20 μM, phospho-p70 S6 Kinase Western blot in SW620 cells; conditions: leucine-free 1 h 30 min, then leucine 15 min, vs DMSO control
Protocol: In order to evaluate the inhibitory effect of the compounds according to the present invention on the activity of mTORC1, an experiment was performed in the following manner.

| interaction between LRS and RagD (LRS and RagD) | mTORC2 activation, p-AKT (S473) (mTORC2 [6]) | SMILES | GTP hydrolysis of RagD (RagD) | mTORC1 activation, p-S6K (T389) in cerebral cortex and hippocampus (mTORC1 [2]) | autophagy (LC3 II increase or p62 cleavage) (autophagy [3]) | mTORC1 inhibitory effect (%) (mTORC1 [7]) | further results |
| --- | --- | --- | --- | --- | --- | --- | --- |
| directly inhibited | – | O=C1NC(=S)S/C1=C\c1cnn(-c2ccccc2)c1 [Example 1-1, (5Z)-5-[(1-phenylpyrazol-4-yl)methylene]-2-thioxo-thiazolidin-4-one] | inhibiting the GTP hydrolysis of RagD | – | – | – | – |
| directly inhibited | not affected | O=C1[N-]C(=S)S/C1=C\c1cnn(-c2ccccc2)c1.[K+] [Example 1-1K, Potassium Salt of (5Z)-5-[(1-phenylpyrazole-4-yl)methylene]-2-thioxo-thiazolidin-4-one] | inhibiting the GTP hydrolysis of RagD | reduced | induced | ≥ 85 | phosphorylation degree of AKT (mTORC2 activity) (mTORC2 [1]): not changed; autophagy action (degradation of LC3 II or p62) (autophagy [4]): increased; phosphorylation of S6K in the brain, by dose (mTORC1 [5]; 0, 1, 2.5, 5, 10, 20 and 50 mg/kg intraperitoneal, C57BL/6 male mice): inhibited the phosphorylation of S6K in the brain of the animal in a concentration-dependent manner; phosphorylated S6K in brain neocortex and hippocampus (mTORC1 [5]; 100 mg/kg intraperitoneal, 7-week-old C57BL/6 male mice): not detected; amyloid plaque deposits (ThS staining) in the brain (B6C3H/APP/PS1 mice): significantly reduced |
| – | not affected | CO[C@H]1C[C@@H]2CC[C@@H](C)[C@@](O)(O2)C(=O)C(=O)N2CCCC[C@H]2C(=O)O[C@H]([C@H](C)C[C@@H]2CC[C@@H](O)[C@H](OC)C2)CC(=O)[C@H](C)/C=C(\C)[C@@H](O)[C@@H](OC)C(=O)[C@H](C)C[C@H](C)/C=C/C=C/C=C/1C [rapamycin, reference compound] | – | reduced | induced | – | – |
| – | – | CCN1C(=O)/C(=C/c2cnn(-c3ccc(Cl)cc3)c2)SC1=S [Example 1-19, (5Z)-5-[[1-(4-chlorophenyl)pyrazol-4-yl]methylene]-3-ethyl-2-thioxo-thiazolidin-4-one] | – | – | – | 54.17 ± 8.55 | – |
| – | – | O=C1NC(=O)/C(=C/c2ccn(-c3cccnc3)n2)S1 [Example 1-60, (5Z)-5-[[1-(3-pyridyl)pyrazol-3-yl]methylene]thiazolidine-2,4-dione] | – | – | – | 81.52 ± 3.79 | – |
